Laboratory results taken from patent publication US20240390282A1, “DRUG-LOADED LIPOSOMES AND USES THEREOF IN TREATING BIOFILM” (Yeda Research and Development Co. Ltd., priority 2022, published 2024).

Tests used:
[1] = cited from earlier work
PA14-biofilms = assay: Bacterial viability in biofilms by LIVE/DEAD staining; type: cell-based, Pseudomonas aeruginosa; conditions: PA14 biofilm; free SMX 1.5 mg/mL
Experimental: Determination of bacterial viability in biofilms by LIVE/DEAD™ staining: PA14-biofilms were developed on 8 Well p-Slide (ibidi GmbH, Germany). 150 μL of the inoculum was incubated in a humidified incubator for 24 hours at 37° C. without shaking. After 24 hours, the fully formed biofilm was gently washed twice with PBS. 160 μL of liposomal suspension or BM2G medium was added to each well, and subsequently, the samples were incubated at 37° C. for 4 hours. Each well was then washed with PBS, and a second dose (170 μL) of antibacterial treatment was applied for 4 hours with incubation at 37° C. Subsequently, biofilm was washed with 180 μL of PBS buffer, and bacteria cells were stained using a BacLight™ Bacterial Viability Kit@ (Thermo Fisher Scientific™, USA). Live bacterial cells were stained with SYTO™ 9 dye (ex: 486/em: 501) and dead cells were stained with propidium iodide (PI) dye (λEx: 535/λEm: 617), with dyes mixed in 1:1 ratio. […] Later, wells were washed twice with PBS, and images of biofilm were acquired using confocal fluorescence microscopy. Cell viability quantification was performed using ImageJ software v1.52i (NIH, USA). Confocal pictures were acquired using a confocal laser scanning fluorescence microscope LSM700 (ZEISS, Germany). […] Images were recorded in brightfield mode and in confocal mode using 488 excitation and 561 excitation laser channels. […]

Structure (SMILES) | LogP [1] | pKa [1] | dead cells (red loci) in words (PA14-biofilms)
O=c1oc2c(O)c(O)cc3c(=O)oc4c(O)c(O)cc1c4c23 [Ellagic acid (EA), Ellagic acid] | 1.59-2.32 | 5.8 | 
Cc1cc(NS(=O)(=O)c2ccc(N)cc2)no1 [Sulfamethoxazole (SMX), Sulfamethoxazole] |  |  | significant increase in the number of red loci
